Legend:
[1] = system: estrogen deficiency-induced osteoporosis mice; test: Treatment of estrogen deficiency-induced osteoporosis mice; type: in vivo; conditions: ovariectomized mice, 5 days per week for 2, 4, and 8 weeks; for trabecular bone microstructure: μCT
Method: Three-month-old female mice were subjected to bilateral ovariectomy or sham operation. Two weeks postoperatively, a CB1 antagonist (i.e., compounds 10, 63, and 119) or vehicle was administered 5 days per week for 2, 4, and 8 weeks. Bone mineral density and bone mineral contents in femurs, tibiae, and L1-L5 spine were measured by dual energy x-ray absorptiometry. Trabecular bone microstructure (i.e., trabecular bone volume, thickness, number, separation, porosity, and bone volume index) in femurs, tibiae and spine were analyzed by μCT scanning Mechanical strength of the bones was detected by a material test machine.

diabetic rats = test: Streptozotocin-induced diabetic nephropathy and kidney fibrosis; type: in vivo, Wistar rats; conditions: 4 weeks; for kidney fibrosis: periodic acid-Schiff staining
Method: Three-month-old male Wistar rats were given intraperitoneal streptozotocin (50 mg/kg) to induce diabetes. Two weeks later, diabetic rats that had fasting blood glucose levels of […] were selected for studies. Caged in a metabolic cage system, the diabetic rats were administered a CB1 antagonist (i.e., compounds 10, 63, and 119) for 4 weeks while their urine was collected. To evaluate renal function, protein and creatinine levels in urine were measured by ELISA. To evaluate renal fibrosis, kidneys were dissected, fixed, paraffin wax embedded, and sectioned for histologic assessment after periodic acid-Schiff staining.

male C57BL/6 mice = test: Tetrad response test (body temperature, tail-flick after CP55,940); type: in vivo; conditions: CP55,940 1 mg/kg i.p.
Method: Body temperature and tail-flick responses were measured by rectal thermometer (Natsume, Japan) and tail-flick analgesia meter RS232 (Columbus, USA), respectively, in male C57BL/6 mice. One hour after oral administration of a test compound dissolved in DMSO/Tween 80/H2O (1/1/8 by volume), 1 mg/kg of CP55,940 in saline containing 0.5% DMSO was injected intraperitoneally. Body temperature was measured at a time point of 30 and 65 min, and tail flick response was measured at a time point of 35 min after the injection.

diet-induced obese mice = test: Treatment of diet-induced obese mice; type: in vivo, C57BL/6 mice; conditions: 21 days
Method: Six-week-old C57BL/6 mice were given high-fat diet (Research Diet D 12451; 45% fat, 20% protein, and 35% carbohydrate) for more than 12 weeks before treated with a test compound. Mice weight matched were assigned to different groups and orally gavaged once daily with a vehicle (10% DMSO/10% Tween 80/80% H2O) or a test compound at a defined dosage (e.g., 10 and 20 mg/kg) for at least two weeks. The sum of food taken for each treatment and the body weight were measured daily.

osteoarthritic rats = test: ACLT-induced knee osteoarthritis; type: in vivo, Sprague-Dawley rats; conditions: 8 weeks
Method: Four-month-old male Sprague-Dawley rats were anesthetized using intramuscular atropine (1 mg/kg) and intraperitoneal pentobarbital. The left knees of rats underwent medial parapatellar arthrotomy and transection of the anterior cruciate ligament (ACLT) to induce knee osteoarthritis. The osteoarthritic rats were given a CB1 antagonist (i.e., compounds 10, 63, and 119) or vehicle for 8 weeks. Knee joint radiography was evaluated by a mammography system. Gait profiles of joints in osteoarthritic rats were analyzed by a CatWalk system. Joint morphology was histologically evaluated by a Mankin scoring system.

In the case of `O=C(NN1CCCCC1)c1nn(-c2ccc(Cl)cc2Cl)c(-c2ccc(C#Cc3ccc(C(F)(F)F)cc3)s2)c1CNS(=O)(=O)N1CCCC1` [Compound 10, 1-(2,4-Dichlorophenyl)-N-(piperidin-1-yl)-4-((pyrrolidine-1-sulfonamido)methyl)-5-(5-((4-(trifluoromethyl)phenyl)ethynyl)thiophen-2-yl)-1H-pyrazole-3-carboxamide], the bone mineral density [1] is reported as “increase”, the trabecular bone microstructure [1] is reported as “improvement” and the urine albumin level (diabetic rats) is reported as “decrease”. The kidney fibrosis (diabetic rats) was “reduction”, the “reversal of CB1 agonist-induced analgesic response” value (male C57BL/6 mice; oral dose up to 100 mg/kg) was “did not reverse or slightly reversed” and the “reversal of CB1 agonist-induced hypothermia” value (male C57BL/6 mice; oral dose up to 100 mg/kg) was “did not reverse or slightly reversed”. The relative weight-loss rate (diet-induced obese mice; 10 mg/kg group, oral once daily) was 26.4%, the relative weight-loss rate (diet-induced obese mice; 20 mg/kg group, oral once daily) was 32.8% and the Mankin score (osteoarthritic rats) was “reduction”.

For `O=C(NN1CCCCC1)c1nn(-c2ccc(Cl)cc2Cl)c(-c2ccc(Cl)cc2)c1CNS(=O)(=O)N1CCCC1` [Compound 119, 5-(4-Chlorophenyl)-1-(2,4-dichlorophenyl)-N-(piperidin-1-yl)-4-((pyrrolidine-1-sulfonamido)methyl)-1H-pyrazole-3-carboxamide], the bone mineral density [1] was “increase”, the trabecular bone microstructure [1] was “improvement” and the urine albumin level (diabetic rats) was “decrease”. For the same molecule, the kidney fibrosis (diabetic rats) was “reduction”, the “reversal of CB1 agonist-induced analgesic response” value (male C57BL/6 mice; oral dose up to 100 mg/kg) was “did not reverse or slightly reversed” and the “reversal of CB1 agonist-induced hypothermia” value (male C57BL/6 mice; oral dose up to 100 mg/kg) was “did not reverse or slightly reversed”. For the same molecule, the Mankin score (osteoarthritic rats) was “reduction”.

For `Cc1c(C(=O)NN2CCCCC2)nn(-c2ccc(Cl)cc2Cl)c1-c1ccc(Cl)cc1` [rimonabant, reference compound], the “reversal of CB1 agonist-induced analgesic response” value (male C57BL/6 mice; dose as low as 2 mg/kg) was “significantly reversed”, the “reversal of CB1 agonist-induced hypothermia” value (male C57BL/6 mice; dose as low as 2 mg/kg) was “significantly reversed” and the relative weight-loss rate (diet-induced obese mice; rimonabant comparison, dose not given) was 29.1%.

With `CCCC#Cc1ccc(-c2c(CNS(=O)(=O)N3CCCCC3)c(C(=O)NN3CCCCC3)nn2-c2ccc(Cl)cc2Cl)s1` [Compound 63, 1-(2,4-Dichlorophenyl)-5-(5-(pent-1-ynyl)thiophen-2-yl)-N-(piperidin-1-yl)-4-((piperidine-1-sulfonamido)methyl)-1H-pyrazole-3-carboxamide] the bone mineral density [1] was “increase”, the trabecular bone microstructure [1] was “improvement” and the urine albumin level (diabetic rats) was “decrease”. The kidney fibrosis (diabetic rats) was “reduction”, the “reversal of CB1 agonist-induced analgesic response” value (male C57BL/6 mice; oral dose up to 100 mg/kg) was “did not reverse or slightly reversed” and the “reversal of CB1 agonist-induced hypothermia” value (male C57BL/6 mice; oral dose up to 100 mg/kg) was “did not reverse or slightly reversed”. The Mankin score (osteoarthritic rats) was “reduction”.

Reference: patent US8962845B2, “Pyrazole compounds” (National Health Research Institutes, priority 2011, dated 2015)
